# Test results as given in paper PMC4579064 (Toxicology and applied pharmacology, 2015).
# B1: recombinant human CPR (Homo sapiens) (protein)
# chain: MGDSHVDTSSTVSEAVAEEVSLFSMTDMILFSLIVGLLTYWFLFRKKKEEVPEFTKIQTLTSSVRESSFVEKMKKTGRNIIVFYGSQTGTAEEFANRLSKDAHRYGMRGMSADPEEYDLADLSSLPEIDNALVVFCMATYGEGDPTDNAQDFYDWLQETDVDLSGVKFAVFGLGNKTYEHFNAMGKYVDKRLEQLGAQRIFELGLGDDDGNLEEDFITWREQFWPAVCEHFGVEATGEESSIRQYELVVHTDIDAAKVYMGEMGRLKSYENQKPPFDAKNPFLAAVTTNRKLNQGTERHLMHLELDISDSKIRYESGDHVAVYPANDSALVNQLGKILGADLDVVMSLNNLDEESNKKHPFPCPTSYRTALTYYLDITNPPRTNVLYELAQYASEPSEQELLRKMASSSGEGKELYLSWVVEARRHILAILQDCPSLRPPIDHLCELLPRLQARYYSIASSSKVHPNSVHICAVVVEYETKAGRINKGVATNWLRAKEPAGENGGRALVPMFVRKSQFRLPFKATTPVIMVGPGTGVAPFIGFIQERAWLRQQGKEVGETLLYYGCRRSDEDYLYREELAQFHRDGALTQLNVAFSREQSHKVYVQHLLKQDREHLWKLIEGGAHIYVCGDARNMARDVQNTFYDIVAELGAMEHAQAVDYIKKLMTKGRYSLDVWS
# What was measured:
# [1] = system: brain ChE; experiment: brain ChE activity in parathion-treated rats; assay type: in vivo, rat
# [2] = assay type: in vivo, rat; settings: after parathion 8 mg/kg oral; 60 min
# [3] = system: rat; settings: ref Gaines, 1960; cited from earlier work
# [4] = system: female Long-Evans rats; settings: out of 5 rats dosed with parathion 8 mg/kg oral; 60 min
# [5] = substrate: CC1=CC(=O)c2ccccc2C1=O; experiment: CPR-mediated redox cycling, H2O2 formation; assay type: biochemical, human; settings: other: menadione as redox cycling substrate of CPR; Amplex Red; pH 7.8; 37.0 °C
# [6] = substrate: CC1=CC(=O)c2ccccc2C1=O; experiment: CPR-mediated redox cycling, hydroxyl radical formation; assay type: biochemical, human; settings: other: menadione; Fe/EDTA, terephthalate; pH 7.8; 37.0 °C
# [7] = parathion 8 mg/kg oral gavage alone, 60 min
molecule,measurement,setting,value
CC1(S(=O)(=O)[O-])CC(=O)c2ccccc2C1=O.[Na+] (centres unmarked) [menadione bisulfite],parathion-induced inhibition of brain cholinesterase activity,"[1]; menadione bisulfite 40 mg/kg, ip",reduced
"CCOP(=O)(OCC)Oc1ccc([N+](=O)[O-])cc1 [paraoxon, diethyl 4-nitrophenyl phosphate]","paraoxon levels in serum, liver and brain",[2],could not be detected
"CCOP(=S)(OCC)Oc1ccc([N+](=O)[O-])cc1 [parathion, diethyl 4-nitrophenyl phosphorothionate]",forebrain ChE activity inhibited,[1]; [7],95%
same,hindbrain ChE activity inhibited,[1]; [7],87%
same,rat oral LD50,[3],2 to 13 mg/kg
same,rats that died before the end of the observation period,[4],1
B1,Km,[5],4.1 µM
same,Km,[6],1.7 µM
